Measurements published in US9872495B2, “Peptoid oligomers, pharmaceutical compositions and methods of using the same” (priority 2009, dated 2018).
Values after ≈ are worked out from the molar mass of the structure shown. Read-outs that look alike come from different tables or passages of the source. Numbered stars: 1 amine (or outer) side, 2 acyl side, 3 side chain; on linkers, the order of the positions; unused ones are H or OH. Square brackets hold non-standard residues; d marks the D form. Peptide text beside a SMILES is read from it. X1 = O=C(CN(CC(c1ccccc1)c1ccccc1)[*:1])[*:2]; Gly(N-(CH2)6NH2) = NCCCCCCNCC(=O)O; Gly(N(CH2)3NH2) = NCCCNCC(=O)O; NhArg = N=C(N)NCCCCNCC(=O)O; N(iPr)Gly = CC(C)NCC(=O)O; Nphe = O=C(O)CNCc1ccccc1; Nleu = CC(C)CNCC(=O)O

Assays:
Type in all cases: cell-based
fresh human erythrocytes = assay: Hemolytic activity
Description: Typically, toxicity is evaluated by hemolytic concentration50 (HC50), which measures the concentration of antimicrobial agents at which 50% of the erythrocytes in the culture are lysed. Significant hemolysis, as evaluated by HC50, was detectable only for peptide gramicidin S (40 μg/mL). […] In order to test hemolytic activity of peptoid oligomers further, more stringent parameters were used. Instead of HC50, hemolytic concentration10 (HC10) was used to evaluate hemolytic activity of peptoids used in this study. HC10 represents the concentration of antimicrobial agents where 10% of erythrocytes are lysed. HC10 values were detectable for only four peptoid oligomers. […] Antimicrobial activity was tested against the gram-negative strain Escherichia coli ATCC 25922, and […] strains Staphylococcus aureus ATCC 25923, and Bacillus subtilis ATCC 6633, according to the guidelines given in the document […]-A7 of the CLSI (Clinical and Laboratory Standards Institute; Clinical and Laboratory Standards Institute. Methods for Dilution Antimicrobial Susceptibility Tests for Bacteria That Grow Aerobically-Seventh Edition: Approved Standard CLSI document […]-A7. CLSI, Wayne, USA, 2006). This reference is incorporated herein in its entirety. Hemolytic activity was tested against fresh human erythrocytes.

[1] = system: Bacillus subtilis ATCC 6633
Description: (§1) Antimicrobial activity was tested against the gram-negative strain Escherichia coli ATCC 25922, and […] strains Staphylococcus aureus ATCC 25923, and Bacillus subtilis ATCC 6633, according to the guidelines given in the document […]-A7 of the CLSI (Clinical and Laboratory Standards Institute; Clinical and Laboratory Standards Institute. Methods for Dilution Antimicrobial Susceptibility Tests for Bacteria That Grow Aerobically-Seventh Edition: Approved Standard CLSI document […]-A7. CLSI, Wayne, USA, 2006). This reference is incorporated herein in its entirety. Hemolytic activity was tested against fresh human erythrocytes.

[2] = system: Staphylococcus aureus ATCC 25923
Description: as §1

[3] = system: Escherichia coli ATCC 25922
Description: as §1

SMILES | non-hemolytic up to (concentration) (fresh human erythrocytes) | HC10 (concentration where 10% hemolysis is observed) (fresh human erythrocytes; red cells of human) | HC50 (concentration where 50% hemolysis is observed) (fresh human erythrocytes; red cells of human) | MIC B. sub ([1]; ATCC 6633) | MIC S. aureus ([2]; ATCC 25923) | MIC E. coli ([3]; ATCC 25922) | HC10 (concentration where 10% hemolysis is observed) (fresh human erythrocytes; fresh human erythrocytes) | HC50 (concentration where 50% hemolysis is observed) (fresh human erythrocytes; fresh human erythrocytes) | MIC B. sub ([1]; B. subtilis ATCC 6633) | MIC S. aureus ([2]; S. aureus ATCC 25923) | MIC E. coli ([3]; E. coli ATCC 25922)
NCCCN1CC(=O)N(Cc2ccccc2)CC(=O)N(CCCN)CC(=O)N(Cc2ccccc2)CC(=O)N(CCCN)CC(=O)N(Cc2ccccc2)CC(=O)N(CCCN)CC(=O)N(Cc2ccccc2)CC(=O)N(CCCN)CC(=O)N(Cc2ccccc2)CC1=O [Compound 25, C(NapNpm)5] (cyclo([Nphe][Gly(N(CH2)3NH2)][Nphe][Gly(N(CH2)3NH2)][Nphe][Gly(N(CH2)3NH2)][Nphe][Gly(N(CH2)3NH2)][Nphe][Gly(N(CH2)3NH2)])) | ≥ 250 µg/mL | >250 µg/mL | >250 µg/mL | 0.5 µg/mL (≈ 0.383 µM) | 7.8 µg/mL (≈ 5.97 µM) | 7.8 µg/mL (≈ 5.97 µM) | – | – | – | – | –
N=C(N)NCCCCN1CC(=O)N(CC(c2ccccc2)c2ccccc2)CC(=O)N(CCCCNC(=N)N)CC(=O)N(CC(c2ccccc2)c2ccccc2)CC(=O)N(CCCCNC(=N)N)CC(=O)N(CC(c2ccccc2)c2ccccc2)CC(=O)N(CCCCNC(=N)N)CC(=O)N(CC(c2ccccc2)c2ccccc2)CC(=O)N(CCCCNC(=N)N)CC(=O)N(CC(c2ccccc2)c2ccccc2)CC1=O [Compound 31, C(NgbNdp)5] | – | >62.5 µg/mL | >250 µg/mL | 250 µg/mL (≈ 123 µM) | 250 µg/mL (≈ 123 µM) | 250 µg/mL (≈ 123 µM) | – | – | – | – | –
CC(=O)N(CC(=O)N(CCCN)CC(=O)N(CC(=O)N(CC(=O)N1CCC[C@H]1C(=O)N(CC(=O)N(CCCN)CC(=O)N(CC(=O)N(CC(=O)N1CCC[C@H]1C(N)=O)Cc1ccccc1)CC(C)C)C(C)C)Cc1ccccc1)CC(C)C)C(C)C [Compound 11, Ac(NipNapNibNpmPro)2] (Ac-[N(iPr)Gly][Gly(N(CH2)3NH2)][Nleu][Nphe]P[N(iPr)Gly][Gly(N(CH2)3NH2)][Nleu][Nphe]P-NH2) | – | – | – | – | – | – | >250 µg/mL | >250 µg/mL | >500 µg/mL | >500 µg/mL | >500 µg/mL
NCCCN1CC(=O)N(CCCN)CC(=O)N(Cc2ccccc2)CC(=O)N(CCCN)CC(=O)N(Cc2ccccc2)CC(=O)N(CCCN)CC1=O [Compound 22, C(NapNpm)2Nap2] (cyclo([Nphe][Gly(N(CH2)3NH2)][Nphe][Gly(N(CH2)3NH2)][Gly(N(CH2)3NH2)][Gly(N(CH2)3NH2)])) | – | >250 µg/mL | >250 µg/mL | >500 µg/mL | >500 µg/mL | >500 µg/mL | – | – | – | – | –
NCCCCCCN1CC(=O)N(Cc2ccccc2)CC(=O)N(CCCCCCN)CC(=O)N(Cc2ccccc2)CC(=O)N(CCCCCCN)CC(=O)N(Cc2ccccc2)CC1=O [Compound 19, C(NahNpm)3] (cyclo([Nphe][Gly(N-(CH2)6NH2)][Nphe][Gly(N-(CH2)6NH2)][Nphe][Gly(N-(CH2)6NH2)])) | – | >250 µg/mL | >250 µg/mL | 500 µg/mL (≈ 549 µM) | >500 µg/mL | 500 µg/mL (≈ 549 µM) | – | – | – | – | –
CC(=O)N(CC(=O)N(CCCCNC(=N)N)CC(=O)N(CC(=O)N(CCCCNC(=N)N)CC(=O)N(CC(=O)N(CC(N)=O)CC(c1ccccc1)c1ccccc1)CC(c1ccccc1)c1ccccc1)CC(c1ccccc1)c1ccccc1)CC(c1ccccc1)c1ccccc1 [Compound 16, Ac(NdpNgb)2Ndp2] | – | – | – | – | – | – | 250 µg/mL | >250 µg/mL | >500 µg/mL | 62.5 µg/mL (≈ 46.3 µM) | >500 µg/mL
CC(=O)N(CCCN)CC(=O)N(CC(=O)N(CCCN)CC(=O)N(CC(=O)N(CCCN)CC(=O)N(CC(N)=O)Cc1ccccc1)Cc1ccccc1)Cc1ccccc1 [Compound 7, Ac(NapNpm)3] (Ac-[Gly(N(CH2)3NH2)][Nphe][Gly(N(CH2)3NH2)][Nphe][Gly(N(CH2)3NH2)][Nphe]-NH2) | – | >250 µg/mL | >250 µg/mL | 125 µg/mL (≈ 148 µM) | 250 µg/mL (≈ 297 µM) | 125 µg/mL (≈ 148 µM) | – | – | – | – | –
CC(C)CN1CC(=O)N(Cc2ccccc2)CC(=O)N2CCC[C@H]2C(=O)N(C(C)C)CC(=O)N(CCCN)CC(=O)N(CC(C)C)CC(=O)N(Cc2ccccc2)CC(=O)N2CCC[C@H]2C(=O)N(C(C)C)CC(=O)N(CCCN)CC1=O [Compound 27, C(NipNapNibNpmPro)2] (cyclo([Nleu][Nphe]P[N(iPr)Gly][Gly(N(CH2)3NH2)][Nleu][Nphe]P[N(iPr)Gly][Gly(N(CH2)3NH2)])) | – | – | – | – | – | – | >250 µg/mL | >250 µg/mL | >500 µg/mL | >500 µg/mL | >500 µg/mL
CC(=O)N(CC(=O)N(CCCN)CC(=O)N(CC(=O)N(CCCN)CC(=O)N(CC(=O)N(CC(N)=O)Cc1ccccc1)Cc1ccccc1)Cc1ccccc1)Cc1ccccc1 [Compound 10, Ac(NpmNap)2Npm2] (Ac-[Nphe][Gly(N(CH2)3NH2)][Nphe][Gly(N(CH2)3NH2)][Nphe][Nphe]-NH2) | – | >250 µg/mL | >250 µg/mL | 31.3 µg/mL (≈ 35.7 µM) | >500 µg/mL | >500 µg/mL | – | – | – | – | –
CC(=O)N(CC(=O)N(CC(=O)N(CCCN)CC(=O)N(CC(=O)N1CCCC1C(=O)N(CC(=O)N(CC(=O)N(CCCN)CC(=O)N(CC(=O)N1CCCC1C(N)=O)C(C)C)CC(C)C)Cc1ccccc1)C(C)C)CC(C)C)Cc1ccccc1 (stereo not drawn) [Compound 13, Ac(NpmNibNapNipPro)2] (Ac-[Nphe][Nleu][Gly(N(CH2)3NH2)][N(iPr)Gly]P[Nphe][Nleu][Gly(N(CH2)3NH2)][N(iPr)Gly]P-NH2; configuration not given here) | – | >250 µg/mL | >250 µg/mL | >500 µg/mL | >500 µg/mL | >500 µg/mL | – | – | – | – | –
CC(=O)N(CC(=O)N(CC(=O)N(CCCCNC(=N)N)CC(=O)N(CC(=O)N1CCC[C@H]1C(=O)N(CC(=O)N(CC(=O)N(CCCCNC(=N)N)CC(=O)N(CC(=O)N1CCC[C@H]1C(N)=O)C(C)C)CC(C)C)CC(c1ccccc1)c1ccccc1)C(C)C)CC(C)C)CC(c1ccccc1)c1ccccc1 [Compound 12, Ac(NdpNibNgbNipPro)2] (Ac-[X1][Nleu][NhArg][N(iPr)Gly]P[X1][Nleu][NhArg][N(iPr)Gly]P-NH2) | – | >250 µg/mL | >250 µg/mL | 500 µg/mL (≈ 335 µM) | 500 µg/mL (≈ 335 µM) | 250 µg/mL (≈ 167 µM) | – | – | – | – | –
NCCCN1CC(=O)N(Cc2ccccc2)CC(=O)N(Cc2ccccc2)CC(=O)N(Cc2ccccc2)CC(=O)N(CCCN)CC(=O)N(Cc2ccccc2)CC1=O [Compound 26, C(NpmNap)2Npm2] (cyclo([Nphe][Nphe][Nphe][Gly(N(CH2)3NH2)][Nphe][Gly(N(CH2)3NH2)])) | – | >250 µg/mL | >250 µg/mL | 15.6 µg/mL (≈ 19.1 µM) | 500 µg/mL (≈ 612 µM) | 500 µg/mL (≈ 612 µM) | – | – | – | – | –
N=C(N)NCCCCN1CC(=O)N(Cc2ccccc2)CC(=O)N(CCCCNC(=N)N)CC(=O)N(Cc2ccccc2)CC(=O)N(CCCCNC(=N)N)CC(=O)N(Cc2ccccc2)CC1=O [Compound 18, C(NgbNpm)3] (cyclo([Nphe][NhArg][Nphe][NhArg][Nphe][NhArg])) | – | >250 µg/mL | >250 µg/mL | 125 µg/mL (≈ 131 µM) | 250 µg/mL (≈ 263 µM) | 250 µg/mL (≈ 263 µM) | – | – | – | – | –
